Assay results from patent US20170087106A1, “Method for supporting gut health” (priority 2015, published 2017).

How the values were obtained:
Assay type in all cases: in vivo
MCP-1 = experiment: TNBS rat colitis: colonic MCP-1 mRNA by real-time PCR; settings: colon, oral daily 7 days, mean ± SEM
Protocol: (§1) Female Wistar rats (180-200 g) were randomly assigned to nine groups (n=10). Three groups received treatment with CaPyr (20, 40 and 100 mg/kg); other three received treatment with ethyl pyruvate (20, 40 and 100 mg/kg); and the remaining was treated with sulphasalazine (30 mg/kg). All compounds were dissolved in 1 ml of carboxymethylcellulose (0.2%) in water solution, and administered daily by oral gavage. An untreated TNBS control group and a non-colitic group were included for reference, which received the vehicle used to administer the test compounds. Colonic inflammation was induced in control and treated groups as generally described (see Galvez et al. 2014). Briefly, rats were fasted overnight, anesthetized with halothane and given TNBS dissolved in 0.25 ml of 50% ethanol (v/v) by means of a Teflon cannula inserted 8 cm through the anus. During and after TNBS administration, the rats were kept in a head-down position until they recovered from anaesthesia, and then returned to their cages. Rats from the non-colitic group were administered intracolonically 0.25 ml of phosphate buffered saline instead of TNBS. The treatments were given from the day of the colitis induction until the sacrifice of the rats with an overdose of halothane, seven days later. Animal body weights, occurrence of diarrhoea, and water and food intake were recorded daily throughout all the experiments. Once the animals were sacrificed, the colon was removed aseptically and placed on an ice-cold plate, longitudinally opened and cleaned from their luminal contents with cold saline. Afterwards, it was weighed and its length measured under a constant load (2 g). Each colon was scored for macroscopically visible damage on a 0-10 scale by two observers unaware of the experiment, according to the criteria described before (see Galvez et al. 2014). Colon samples (0.5 cm^2) containing all the layers were taken from a region of the inflamed colon corresponding to the adjacent segment to the gross macroscopic damage and were fixed in 4% buffered formaldehyde for the histological studies. Equivalent colonic segments were also obtained from the non-colitic group. The colon was subsequently minced, aliquoted and kept frozen at −80° C. until biochemical determinations and RNA extraction was performed.
(§2) Analysis of gene expression in colonic samples by RT-qPCR Total RNA from colonic samples was isolated using Trizol® (Thermo Fisher Scientific Inc., Waltham, Mass. USA) following the manufacturer's protocol. All RNA samples were quantified with the Thermo Scientific NanoDrop™ 2000 Spectrophotometer (Thermo Fisher Scientific Inc., Waltham, Mass. USA) and […] of RNA were reverse transcribed using oligo(dT) primers (Promega, Southampton, UK).
(§3) Real time quantitative PCR amplification and detection was performed on optical-grade 48 well plates in an Eco™ Real-Time PCR System (Illumina, CA, USA) with 20 ng of cDNA, the KAPA SYBR® FAST qPCR Master Mix (Illumina, CA, USA) and specific primers at their annealing temperature (Ta). To normalize mRNA expression, the expression of the housekeeping gene, glyceraldehyde-3-phosphate dehydrogenase (GAPDH) was measured. The mRNA relative quantitation was calculated using the ΔΔCt method.

iNOS = experiment: TNBS rat colitis: colonic iNOS mRNA by real-time PCR; settings: colon, oral daily 7 days, mean ± SEM
Protocol: as §1, §2, §3

IL-6 = experiment: TNBS rat colitis: colonic IL-6 mRNA by real-time PCR; settings: colon, oral daily 7 days, mean ± SEM
Protocol: as §1, §2, §3

glutathione (GSH) = experiment: TNBS rat colitis: colonic total glutathione (GSH) content; settings: colonic tissue, oral daily 7 days, mean ± SEM
Protocol: as §1
(§4) Myeloperoxidase (MPO) activity was measured according to the technique described previously (Krawiszet al., 1984); the results were expressed as MPO units per gram of wet tissue; one unit of MPO activity was defined as that degrading 1 μmol hydrogen peroxide/min at 25° C. Total glutathione (GSH) content was quantified with the recycling assay described by Anderson (1985), and the results were expressed as nmol/g wet tissue. In order to evaluate tissue IL-1β levels, the colonic samples were homogenized in phosphate buffered saline supplemented with 0.1% sodium dodecyl sulfate (SDS), 0.1% sodium deoxycholate, 1% Triton X-100 and protease and phosphatase inhibitors (aprotinin, leupeptin and phenylmethylsulfonyl fluoride). The cytokine was quantified by enzyme-linked immunoabsorbent assay (R&D Systems Inc., Minneapolis, Minn., USA) and the results were expressed as pg/g wet tissue.

TFF-3 = experiment: TNBS rat colitis: colonic TFF-3 mRNA by real-time PCR; settings: colon, oral daily 7 days, mean ± SEM
Protocol: as §1, §2, §3

IL-12 = experiment: TNBS rat colitis: colonic IL-12 mRNA by real-time PCR; settings: colon, oral daily 7 days, mean ± SEM
Protocol: as §1, §2, §3

myeloperoxidase (MPO) = experiment: TNBS rat colitis: colonic myeloperoxidase (MPO) activity; settings: colonic tissue, oral daily 7 days, mean ± SEM
Protocol: as §1, §4

[1] = system: TNBS experimental rat colitis; experiment: TNBS rat colitis: microscopic (histological) damage score; settings: oral daily 7 days, mean ± SEM
Protocol: as §1
Cross-sections were selected and embedded in paraffin. Full-thickness sections of 5 μm were obtained at different levels and stained with haematoxylin and eosin. The histological damage was evaluated by a pathologist observer, who was blinded to the experimental groups, according to the criteria previously described by Galvez.

CINC-1 = experiment: TNBS rat colitis: colonic CINC-1 mRNA by real-time PCR; settings: colon, oral daily 7 days, mean ± SEM
Protocol: as §1, §2, §3

IL-1β [2] = experiment: TNBS rat colitis: colonic IL-1β mRNA by real-time PCR; settings: colon, oral daily 7 days, mean ± SEM
Protocol: as §1, §2, §3

[3] = system: TNBS experimental rat colitis; experiment: TNBS rat colitis: colonic macroscopic damage score and weight/length ratio; settings: for Damage Score (0-10) / Weight/length: TNBS rat colitis, oral daily 7 days, mean ± SEM; for Weight/length: colon
Protocol: as §1

IL-1β [4] = experiment: TNBS rat colitis: colonic IL-1β by ELISA; settings: colonic tissue, oral daily 7 days, mean ± SEM
Protocol: as §1, §4

MUC-2 = experiment: TNBS rat colitis: colonic MUC-2 mRNA by real-time PCR; settings: colon, oral daily 7 days, mean ± SEM
Protocol: as §1, §2, §3

IL-23 = experiment: TNBS rat colitis: colonic IL-23 mRNA by real-time PCR; settings: colon, oral daily 7 days, mean ± SEM
Protocol: as §1, §2, §3

IL-17 = experiment: TNBS rat colitis: colonic IL-17 mRNA by real-time PCR; settings: colon, oral daily 7 days, mean ± SEM
Protocol: as §1, §2, §3

ICAM-1 = experiment: TNBS rat colitis: colonic ICAM-1 mRNA by real-time PCR; settings: colon, oral daily 7 days, mean ± SEM
Protocol: as §1, §2, §3

## CCOC(=O)C(C)=O [EtPyr, ethyl pyruvate]
MCP-1; 20 mg/kg
  MCP-1 mRNA expression: 1.23 ± 0.37 fold increase
MCP-1; 40 mg/kg
  MCP-1 mRNA expression: 1.85 ± 0.29 fold increase
MCP-1; 100 mg/kg
  MCP-1 mRNA expression: 2.21 ± 0.29 fold increase
iNOS; 20 mg/kg
  iNOS mRNA expression: 16.17 ± 2.75 fold increase
iNOS; 40 mg/kg
  iNOS mRNA expression: 12.20 ± 1.53 fold increase
iNOS; 100 mg/kg
  iNOS mRNA expression: 22.88 ± 2.14 fold increase
IL-6; 20 mg/kg
  IL-6 mRNA expression: 5.60 ± 1.41 fold increase
IL-6; 40 mg/kg
  IL-6 mRNA expression: 5.60 ± 1.20 fold increase
IL-6; 100 mg/kg
  IL-6 mRNA expression: 6.00 ± 1.01 fold increase
Glutathione (GSH); 20 mg/kg
  GSH: 560 ± 74 nmol/g tissue
Glutathione (GSH); 40 mg/kg
  GSH: 715 ± 88 nmol/g tissue
Glutathione (GSH); 100 mg/kg
  GSH: 870 ± 124 nmol/g tissue
TFF-3; 20 mg/kg
  TFF-3 mRNA expression: 0.59 ± 0.16 fold increase
TFF-3; 40 mg/kg
  TFF-3 mRNA expression: 1.01 ± 0.05 fold increase
TFF-3; 100 mg/kg
  TFF-3 mRNA expression: 0.96 ± 0.11 fold increase
IL-12; 20 mg/kg
  IL-12 mRNA expression: 1.09 ± 0.13 fold increase
IL-12; 40 mg/kg
  IL-12 mRNA expression: 1.81 ± 0.48 fold increase
IL-12; 100 mg/kg
  IL-12 mRNA expression: 1.62 ± 0.37 fold increase
Myeloperoxidase (MPO); 20 mg/kg
  MPO: 58.1 ± 11.9 mU/g tissue
Myeloperoxidase (MPO); 40 mg/kg
  MPO: 61.5 ± 9.8 mU/g tissue
Myeloperoxidase (MPO); 100 mg/kg
  MPO: 54.7 ± 10.8 mU/g tissue
[1]; 20 mg/kg
  Microscopic Damage Score (0-59): 25 ± 3
[1]; 40 mg/kg
  Microscopic Damage Score (0-59): 17 ± 3
[1]; 100 mg/kg
  Microscopic Damage Score (0-59): 23 ± 3
CINC-1; 20 mg/kg
  CINC-1 mRNA expression: 4.40 ± 0.65 fold increase
CINC-1; 40 mg/kg
  CINC-1 mRNA expression: 4.40 ± 0.57 fold increase
CINC-1; 100 mg/kg
  CINC-1 mRNA expression: 4.40 ± 0.90 fold increase
IL-1β [2]; 20 mg/kg
  IL-1β mRNA expression: 6.90 ± 1.50 fold increase
IL-1β [2]; 40 mg/kg
  IL-1β mRNA expression: 7.20 ± 1.20 fold increase
IL-1β [2]; 100 mg/kg
  IL-1β mRNA expression: 10.21 ± 1.50 fold increase
[3]; 20 mg/kg
  Damage Score (0-10): 6.6 ± 0.6
  Weight/length: 185.4 ± 31.1 mg/cm
[3]; 40 mg/kg
  Damage Score (0-10): 6.1 ± 0.4
  Weight/length: 172.0 ± 15.8 mg/cm
[3]; 100 mg/kg
  Damage Score (0-10): 6.0 ± 0.5
  Weight/length: 186.4 ± 13.2 mg/cm
[3]; rats, 20, 40 and 100 mg/kg body weight, 7 days oral treatment
  effect in TNBS-induced colitis (in words): intestinal anti-inflammatory effects
IL-1β [4]; 20 mg/kg
  IL-1β (ELISA): 975.0 ± 90.1 ng/g tissue
IL-1β [4]; 40 mg/kg
  IL-1β (ELISA): 1140.0 ± 150.1 ng/g tissue
IL-1β [4]; 100 mg/kg
  IL-1β (ELISA): 975.0 ± 211.7 ng/g tissue
MUC-2; 20 mg/kg
  MUC-2 mRNA expression: 0.39 ± 0.09 fold increase
MUC-2; 40 mg/kg
  MUC-2 mRNA expression: 0.70 ± 0.08 fold increase
MUC-2; 100 mg/kg
  MUC-2 mRNA expression: 0.50 ± 0.11 fold increase
IL-23; 20 mg/kg
  IL-23 mRNA expression: 1.68 ± 0.39 fold increase
IL-23; 40 mg/kg
  IL-23 mRNA expression: 1.56 ± 0.27 fold increase
IL-23; 100 mg/kg
  IL-23 mRNA expression: 1.80 ± 0.21 fold increase
IL-17; 20 mg/kg
  IL-17 mRNA expression: 1.17 ± 0.27 fold increase
IL-17; 40 mg/kg
  IL-17 mRNA expression: 1.74 ± 0.33 fold increase
IL-17; 100 mg/kg
  IL-17 mRNA expression: 2.34 ± 0.30 fold increase
ICAM-1; 20 mg/kg
  ICAM-1 mRNA expression: 1.39 ± 0.19 fold increase
ICAM-1; 40 mg/kg
  ICAM-1 mRNA expression: 2.27 ± 0.38 fold increase
ICAM-1; 100 mg/kg
  ICAM-1 mRNA expression: 2.39 ± 0.50 fold increase

## O=C(O)c1cc(/N=N/c2ccc(S(=O)(=O)Nc3ccccn3)cc2)ccc1O [SAZ, sulphasalazine]
MCP-1; 30 mg/kg
  MCP-1 mRNA expression: 2.62 ± 0.41 fold increase
iNOS; 30 mg/kg
  iNOS mRNA expression: 16.47 ± 2.75 fold increase
IL-6; 30 mg/kg
  IL-6 mRNA expression: 4.21 ± 0.80 fold increase
Glutathione (GSH); 30 mg/kg
  GSH: 900 ± 118 nmol/g tissue
TFF-3; 30 mg/kg
  TFF-3 mRNA expression: 0.91 ± 0.12 fold increase
IL-12; 30 mg/kg
  IL-12 mRNA expression: 1.59 ± 0.24 fold increase
Myeloperoxidase (MPO); 30 mg/kg
  MPO: 82.8 ± 8.2 mU/g tissue
[1]; 30 mg/kg
  Microscopic Damage Score (0-59): 30 ± 5
CINC-1; 30 mg/kg
  CINC-1 mRNA expression: 4.89 ± 0.82 fold increase
IL-1β [2]; 30 mg/kg
  IL-1β mRNA expression: 9.70 ± 0.90 fold increase
[3]; 30 mg/kg
  Damage Score (0-10): 6.7 ± 0.4
  Weight/length: 180.4 ± 16.9 mg/cm
IL-1β [4]; 30 mg/kg
  IL-1β (ELISA): 840.0 ± 120.0 ng/g tissue
MUC-2; 30 mg/kg
  MUC-2 mRNA expression: 0.53 ± 0.14 fold increase
IL-23; 30 mg/kg
  IL-23 mRNA expression: 1.26 ± 0.18 fold increase
IL-17; 30 mg/kg
  IL-17 mRNA expression: 2.22 ± 0.54 fold increase
ICAM-1; 30 mg/kg
  ICAM-1 mRNA expression: 2.90 ± 0.88 fold increase
